For 23 compounds, IC50 results are on record in US11945811B2, “Potassium channel inhibitors” (ACESION PHARMA APS, priority 2021, dated 2024).

This assay has as its target T1, human SK3 channel (hKCa2.3) (Homo sapiens, UniProt Q9UGI6).
T1 construct: expressed in transfected cells
Put plainly: Automated patch clamping (QPatch 16 HT whole-cell recordings). Format: cell-based. The following applies: HEK-293 cells stably expressing hKCa2.3; currents measured at −80 mV; normalized to N-methyl bicuculline; read-out: IC50 in the Automated patch clamping assay (SK3 channel inhibition). The protocol:
Automated whole cell patch-clamp recordings were performed using a QPatch 16 HT system and single-hole Qplates (Sophion, Denmark) on HEK-293 cells stably expressing the human SK3 channel (hKCa2.3). Cells were cultured and prepared for experiments using normal cell culturing procedures. A total of 4-5 million cells were used per experiment. The Qpatch automatically generates giga sealing, whole-cell formation, compound application and recording of current. hKCa2.3 currents were recorded in symmetrical K^+ solutions. The intracellular/pipette solution contained 154 mM KCl, 10 mM HEPES and 10 mM EGTA. CaCl2 is added to give calculated free concentrations of Ca^2+ of 0.4 μM and MgCl2 is added to give a free concentration of 1 mM. In order to maintain a total [K^+] of 156 mM (corresponding to the concentration in the extracellular ringer) a fixed amount of KOH (15 mM) is added, thereafter pH is adjusted with HCl to pH=7.2. Expected osmolarity: 275 mOsm. Sucrose was added to a final osmolarity around 295 mosm. The extracellular solution consisted of (in mM): CaCl2 0.1, MgCl2 3, KCl 150, HEPES 10 and glucose 10, pH=7.4 adjusted with KOH. Osmolarity between 285-295 mosm. The cells were held at 0 mV and hKCa2.3 currents were elicited by a linear voltage ramp from −80 mV to +80 mV (200 ms in duration) applied every 5th second.
The compound application protocol consisted of 12 recording periods lasting 200 s: 1) Baseline recordings in extracellular solution; 2) Application of the positive control N-methyl bicuculline (100 μM), which is characterized by full efficacy, fast on- and off-rate; 3-4) Wash-out; 5-10) Increasing concentrations of test compound to establish an IC50 value; 11-12) Wash-out; 13) positive control with compound NS8593 (N-[(1R)-1,2,3,4-tetrahydro-1-naphthalenyl]-1H-benzimidazol-2-amine) (1 μM) or with N-methyl bicuculline (100 μM). Data were sampled at 10 kHz, 4th order Bessel filter, cut-off frequency 3 kHz. Currents were compensated for run-down. Potency was quantified as the concentration needed to inhibit half of the SK channel activity and reported as an IC50 value.
All effects of compounds of the present invention as tested were normalized to the observed inhibitory effect of N-methyl bicuculline. Currents were measured at −80 mV.

With `Cc1nnc(NCc2cccc3[nH]c(NC(C)(CO)c4ccc(F)c(Cl)c4)nc23)o1` (centres unmarked) [Example 16, 2-(3-chloro-4-fluorophenyl)-2-((4-(((5-methyl-1,3,4-oxadiazol-2-yl)amino)methyl)-1H-benzo[d]imidazol-2-yl)amino) propan-1-ol], the IC50 is less than 30 µM.

Consider `Cc1noc(NCc2cccc3[nH]c(NC(C)(CO)c4ccc(F)c(Cl)c4)nc23)n1` (centres unmarked) [Example 17, 2-(3-chloro-4-fluorophenyl)-2-[(4-{[(3-methyl-1,2,4-oxadiazol-5-yl)amino]methyl}-1H-1,3-benzodiazol-2-yl)amino]propan-1-ol], for which the half-inhibitory concentration (IC50) is less than 30 µM.

Regarding `CC(CO)(Nc1nc2c(Cn3ccoc3=N)cccc2[nH]1)c1cccc(C(F)(F)F)c1` (centres unmarked) [Example 18, 2-({4-[(2-imino-2,3-dihydro-1,3-oxazol-3-yl)methyl]-1H-1,3-benzodiazol-2-yl}amino)-2-[3-(trifluoromethyl)phenyl]propan-1-ol], the IC50 was less than 1 µM.

As to `CC(CO)(Nc1nc2c(Cn3ccoc3=N)cccc2[nH]1)c1ccc(Cl)c(Cl)c1` (centres unmarked) [Example 19, 2-(3,4-dichlorophenyl)-2-({4-[(2-imino-2,3-dihydro-1,3-oxazol-3-yl)methyl]-1H-1,3-benzodiazol-2-yl}amino)propan-1-ol], the half-maximal inhibitory concentration (IC50) was less than 1 µM.

On to `Cc1oc(=N)n(Cc2cccc3[nH]c(NC(C)(CO)c4ccc(F)c(Cl)c4)nc23)c1C` (centres unmarked) [Example 20, 2-(3-chloro-4-fluorophenyl)-2-({4-[(2-imino-4,5-dimethyl-2,3-dihydro-1,3-oxazol-3-yl)methyl]-1H-1,3-benzodiazol-2-yl}amino)propan-1-ol], for which the 50% inhibitory concentration (IC50) was less than 1 µM.

As for `Cn1nccc1NCc1cccc2[nH]c(NC(C)(CO)c3cccc(C(F)(F)F)c3)nc12` (centres unmarked) [Example 21, 2-((4-(((1-methyl-1H-pyrazol-5-yl)amino)methyl)-1H-benzo[d]imidazol-2-yl)amino)-2-(3-(trifluoromethyl)phenyl) propan-1-ol], the concentration for half-maximal inhibition (IC50) was less than 30 µM.

For the compound `Cn1ccnc1NCc1cccc2[nH]c(NC(C)(CO)c3cccc(C(F)(F)F)c3)nc12` (centres unmarked) [Example 22, 2-((4-(((1-methyl-1H-imidazol-2-yl)amino)methyl)-1H-benzo[d]imidazol-2-yl)amino)-2-(3-(trifluoromethyl)phenyl)propan-1-ol], the IC50 is less than 30 µM.

With `Cc1coc(=N)n1Cc1cccc2[nH]c(NC(C)(CO)c3cccc(C(F)(F)F)c3)nc12` (centres unmarked) [Example 23, 2-({4-[(2-imino-4-methyl-2,3-dihydro-1,3-oxazol-3-yl)methyl]-1H-1,3-benzodiazol-2-yl}amino)-2-[3-(trifluoromethyl)phenyl]propan-1-ol], the IC50 was less than 1 µM.

On to `Cc1cn(Cc2cccc3[nH]c(NC(C)(CO)c4cccc(C(F)(F)F)c4)nc23)c(=N)o1` (centres unmarked) [Example 24, 2-({4-[(2-imino-5-methyl-2,3-dihydro-1,3-oxazol-3-yl)methyl]-1H-1,3-benzodiazol-2-yl}amino)-2-[3-(trifluoromethyl)phenyl]propan-1-ol], for which the half-maximal inhibitory concentration (IC50) was less than 1 µM.

As for `CCC(CO)(Nc1nc2c(Cn3ccoc3=N)cccc2[nH]1)c1cccc(C(F)(F)F)c1` (centres unmarked) [Example 25, 2-({4-[(2-imino-2,3-dihydro-1,3-oxazol-3-yl)methyl]-1H-1,3-benzodiazol-2-yl}amino)-2-[3-(trifluoromethyl)phenyl]butan-1-ol], the half-maximal inhibitory concentration (IC50) was less than 30 µM.

As to `CC(CCO)(Nc1nc2c(Cn3ccoc3=N)cccc2[nH]1)c1cccc(C(F)(F)F)c1` (centres unmarked) [Example 26, 3-({4-[(2-imino-2,3-dihydro-1,3-oxazol-3-yl)methyl]-1H-1,3-benzodiazol-2-yl}amino)-3-[3-(trifluoromethyl)phenyl]butan-1-ol], the half-maximal inhibitory concentration (IC50) is less than 30 µM.

As for `CC(CO)(Nc1nc2c(Cn3ccoc3=N)cccc2[nH]1)c1cccc(OC(F)(F)F)c1` (centres unmarked) [Example 27, 2-({4-[(2-imino-2,3-dihydro-1,3-oxazol-3-yl)methyl]-1H-1,3-benzodiazol-2-yl}amino)-2-[3-(trifluoromethoxy)phenyl]propan-1-ol], the IC50 was less than 1 µM.

Take `Cc1oc(=N)n(Cc2cccc3[nH]c(NC(C)(CO)c4cccc(C(F)(F)F)c4)nc23)c1C` (centres unmarked) [Example 28, 2-({4-[(2-imino-4,5-dimethyl-2,3-dihydro-1,3-oxazol-3-yl)methyl]-1H-1,3-benzodiazol-2-yl}amino)-2-[3-(trifluoromethyl)phenyl]-propan-1-ol]: the 50% inhibitory concentration (IC50) was less than 30 µM.

In the case of `Cc1coc(=N)n1Cc1cccc2[nH]c(NC(C)(CO)c3cccc(OC(F)(F)F)c3)nc12` (centres unmarked) [Example 29, 2-({4-[(2-imino-4-methyl-2,3-dihydro-1,3-oxazol-3-yl)methyl]-1H-1,3-benzodiazol-2-yl}amino)-2-[3-(trifluoromethoxy)phenyl]propan-1-ol], the IC50 is less than 1 µM.

For `Cc1cn(Cc2cccc3[nH]c(NC(C)(CO)c4cccc(OC(F)(F)F)c4)nc23)c(=N)o1` (centres unmarked) [Example 30, 2-({4-[(2-imino-5-methyl-2,3-dihydro-1,3-oxazol-3-yl)methyl]-1H-1,3-benzodiazol-2-yl}amino)-2-[3-(trifluoromethoxy)phenyl]-propan-1-ol], the IC50 was less than 1 µM.

In the case of `CC(Nc1ncco1)c1cccc2[nH]c(NC(C)(CO)c3ccc(F)c(Cl)c3)nc12` (centres unmarked) [Example 31, 2-(3-chloro-4-fluorophenyl)-2-[(4-{1-[(1,3-oxazol-2-yl)amino]ethyl}-1H-1,3-benzodiazol-2-yl)amino]propan-1-ol], the IC50 is less than 30 µM.

Turning to `CC(CO)(Nc1nc2c(Cn3ccsc3=N)cccc2[nH]1)c1ccc(F)c(Cl)c1` (centres unmarked) [Example 32, 2-(3-chloro-4-fluorophenyl)-2-({4-[(2-imino-2,3-dihydro-1,3-thiazol-3-yl)methyl]-1H-1,3-benzodiazol-2-yl}amino)propan-1-ol], the concentration for half-maximal inhibition (IC50) is less than 1 µM.

Regarding `CC(CO)(Nc1nc2c(Cn3cc[nH]c3=O)cccc2[nH]1)c1ccc(F)c(Cl)c1` (centres unmarked) [Example 33, 1-[(2-{[2-(3-chloro-4-fluorophenyl)-1-hydroxypropan-2-yl]amino}-1H-1,3-benzodiazol-4-yl)methyl]-2,3-dihydro-1H-imidazol-2-one], the half-maximal inhibitory concentration (IC50) is less than 30 µM.

On to `CC(CO)(Nc1nc2c(CN3CCNC3=O)cccc2[nH]1)c1ccc(F)c(Cl)c1` (centres unmarked) [Example 34, 1-[(2-{[2-(3-chloro-4-fluorophenyl)-1-hydroxypropan-2-yl]amino}-1H-1,3-benzodiazol-4-yl)methyl]imidazolidin-2-one], for which the IC50 was less than 30 µM.

On to `CN1CCN(Cc2cccc3[nH]c(NC(C)(CO)c4ccc(F)c(Cl)c4)nc23)C1=O` (centres unmarked) [Example 35, 1-[(2-{[2-(3-chloro-4-fluorophenyl)-1-hydroxypropan-2-yl]amino}-1H-1,3-benzodiazol-4-yl)methyl]-3-methylimidazolidin-2-one], for which the IC50 is less than 30 µM.

With `CC(CO)(Nc1nc2c(CN3CCSC3=O)cccc2[nH]1)c1ccc(F)c(Cl)c1` (centres unmarked) [Example 36, 3-[(2-{[2-(3-chloro-4-fluorophenyl)-1-hydroxypropan-2-yl]amino}-1H-1,3-benzodiazol-4-yl)methyl]-1,3-thiazolidin-2-one], the IC50 was less than 30 µM.

As for `CC(CO)(Nc1nc2c(CN3CCCC3=O)cccc2[nH]1)c1ccc(F)c(Cl)c1` (centres unmarked) [Example 37, 1-[(2-{[2-(3-chloro-4-fluorophenyl)-1-hydroxypropan-2-yl]amino}-1H-1,3-benzodiazol-4-yl)methyl]pyrrolidin-2-one], the IC50 is less than 30 µM.

With `CC(CO)(Nc1nc2c(CNc3ncco3)cccc2[nH]1)c1ccc(F)c(Cl)c1` (centres unmarked) [Example 38, 2-(3-chloro-4-fluorophenyl)-2-[(4-{[(1,3-oxazol-2-yl)amino]methyl}-1H-1,3-benzodiazol-2-yl)amino]propan-1-ol], the IC50 is less than 30 µM.
